# The source made the active and inactive calls. The calls are words filed in the database; no cut-off is given here. Where a SMILES comes first, the peptide text is derived from it. [ ]: non-standard residue; d: D form. The star is where a group is joined. JQ1acid = Cc1sc2c(c1C)C(c1ccc(Cl)cc1)=N[C@@H](CC(=O)*)c1nnc(C)n1-2; NHBn(4-(4-Me-thiazol-5-yl)) = Cc1ncsc1-c1ccc(CN*)cc1; Hyp = O=C(O)[C@@H]1C[C@@H](O)CN1; Tle = CC(C)(C)[C@H](N)C(=O)O; Sar = CNCC(=O)O
# Columns and labels:
# [1] = target: von Hippel-Lindau disease tumor suppressor/Bromodomain-containing protein 4 (Homo sapiens) (UniProt O60885+P40337); test: Protac activity at BRD4/VHL E3 ligase in human MDA-MB-231 cells assessed as decrease in BRD4 expression at 1 uM incubated for 4 to 24 hrs by Western blot analysis; format: cell-based; conditions: time lower 4.0 hrs, time upper […]
# [2] = Thermodynamic solubility of compound in phosphate buffer at pH 7.4 incubated for 2 hrs with shaking by LC-UV analysis; format: physicochemical; conditions: read-out: Therm_solubility
# [3] = Thermodynamic solubility of compound in HCL at pH 2 incubated for 2 hrs with shaking by LC-UV analysis; format: physicochemical; conditions: read-out: Therm_solubility
# von Hippel-Lindau disease tumor suppressor/Bromodomain-containing protein 4 (Homo sapiens), sequence (P40337 whole entry, looked up, other chains not shown): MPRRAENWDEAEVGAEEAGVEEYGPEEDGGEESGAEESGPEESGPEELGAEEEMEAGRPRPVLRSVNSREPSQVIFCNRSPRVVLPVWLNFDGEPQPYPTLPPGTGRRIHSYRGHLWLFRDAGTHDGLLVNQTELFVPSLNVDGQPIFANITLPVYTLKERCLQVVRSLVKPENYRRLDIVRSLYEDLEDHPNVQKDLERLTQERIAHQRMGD
Activity [1],solubility thermodynamic at 2 h [2] [µM],solubility thermodynamic at 2 h [3] [µM],SMILES
inactive,,,Cc1ncsc1-c1ccc(CNC(=O)[C@@H]2C[C@@H](O)CN2C(=O)[C@@H](NC(=O)CCCNC(=O)CN2CCN(C(=O)C[C@@H]3N=C(c4ccc(Cl)cc4)c4c(sc(C)c4C)-n4c(C)nnc43)CC2)C(C)(C)C)cc1
inactive,,,Cc1ncsc1-c1ccc(CNC(=O)[C@@H]2C[C@@H](O)CN2C(=O)[C@@H](NC(=O)CNC(=O)CN2CCN(C(=O)C[C@@H]3N=C(c4ccc(Cl)cc4)c4c(sc(C)c4C)-n4c(C)nnc43)CC2)C(C)(C)C)cc1
,60,171,Cc1sc2c(c1C)C(c1ccc(Cl)cc1)=N[C@@H](CC(=O)NCCCCNC(=O)COc1cccc3c1C(=O)N(C1CCC(=O)NC1=O)C3=O)c1nnc(C)n1-2 (stereo not given in full)
inactive,,,Cc1ncsc1-c1ccc(CNC(=O)[C@@H]2C[C@@H](O)CN2C(=O)[C@@H](NC(=O)CNC(=O)CN(C)C(=O)C[C@@H]2N=C(c3ccc(Cl)cc3)c3c(sc(C)c3C)-n3c(C)nnc32)C(C)(C)C)cc1 (JQ1acid-[Sar]G[Tle][Hyp]-{NHBn(4-(4-Me-thiazol-5-yl))})

# Reference: ChEMBL document CHEMBL5236581, “A Versatile and Sustainable Multicomponent Platform for the Synthesis of Protein Degraders: Proof-of-Concept Application to BRD4-Degrading PROTACs” (J Med Chem, 2022)
